Reference: US20230190781A1, “ADEMETIONINE AND CANNABIDIOL BASED SOLID PHARMACEUTICAL COMPOSITION AND METHOD FOR PREPARING IT” (priority 2020, published 2023)

Columns and labels:
[1] = Residual humidity according to Karl-Fisher during processing under vacuum; type: physicochemical; details: Phase: dosage
Experimental: It was operated as described in Example 3, but the step of mixing the active substances was carried out under vacuum, as described in Example 11.

[2] = Stability of ademetionine in the compositions; type: physicochemical; details: +40° C. and 75% RH
Experimental: The compositions prepared according to the previous examples were placed in dark glass jars in cabinets with temperature and relative humidity control (+40° C. and 75% RH), periodically checking the content of active substances. The stability of the raw material is used as a reference.

SMILES: C[S+](CC[C@H](N)C(=O)[O-])C[C@H]1O[C@@H](n2cnc3c(N)ncnc32)[C@H](O)[C@@H]1O (stereo partly drawn) [Ademetionine, S,S-adenosyl-L-methionine]
- KF: residual humidity [1]: 2.7% w/w
- ademetionine content, Time (months) 0 ([2]; dark glass jars, 0 months): 51.5
- ademetionine content, Time (months) 1 ([2]; dark glass jars, 1 month): 51.0
- ademetionine content, Time (months) 2 ([2]; dark glass jars, 2 months): 49.6
- ademetionine content, Time (months) 3 ([2]; dark glass jars, 3 months): 48.8
- % residual ion ([2]; active substance content after three months as a percentage with respect to time zero): 94.8%
